Where “and” joins values, the source holds several entries; their conditions need not be identical. Equal entries are not always repeated. Bridge positions count the residues as written; N and C are the ends. Ends that are not written are not given here.
Tests used:
myoblasts = assay: Myoblast proliferation / biological activity of synthetic peptides with other cysteine connectivities (results not shown); format: cell-based; details: synthetic peptides of stated connectivity or truncation
Procedure: (§1) Bovine C2C12 myoblasts were grown in Dulbecco's modified eagle medium according to the standard techniques (Thomas et al, 2000). The myoblast proliferation assay was carried out in uncoated 96-well microtitre plates. C2C12 cultures were seeded at 1000 cells/well. Following a 16-hour attachment period, test media containing varying concentrations of either the synthetic 310 peptide in the 2-3 conformation, the synthetic 310 peptide in the 1-4/2-3 conformation or the positive control (recombinant 310 peptide) were added and cells were incubated for a further 48 or 72 hour period. After the incubation period, proliferation was assessed using methylene blue photometric endpoint assay as previously described (Thomas et al, 2000).
A number of synthetic peptides were prepared having an amino acid sequence corresponding to amino acids at positions 267-310 and 282-310 of SEQ ID NO:1. Of the 267-310 peptides a number of different connectivities were prepared as follows: • 1. 1-3/2-4 • 2. 1-2/3-4 • 3. 1-2 • 4. 1-3 • 5. 1-4 • 6. 1-2, 3-4/1-3, 2-4 • 7. 2-4 • 8. 3-4 • 9. 1-4/2-3 • 10. Linear (no forced connectivity)
The peptides were synthesized as described above in example 1. Different cysteine residues were protected and deprotected to produce the specified connectivities and would be understood by a skilled worker.

myostatin = details: recombinant peptide, WO 2008/016314; cited from earlier work
C2C12 myoblasts [1] = assay: Myoblast proliferation assay (methylene blue photometric endpoint); format: cell-based, Mouse; details: for % proliferation above control: control (media + buffer) = 100%; for myoblast proliferation / biological activity (in words): 48 or 72 hours, compared to control (media and buffer only)
From the text: A synthetic peptide of the invention, or a functional variant or fragment thereof has the biological function of antagonising myostatin activity. To determine whether a synthetic peptide of the invention, or functional variant or fragment thereof, is able to antagonise myostatin activity, such activity can be tested by growing myoblasts in the presence or absence (control) of a candidate synthetic peptide of the invention. […] A suitable cell line could be murine C2Cl2 myoblasts (ATCC NO: CRL-1772), however, it will be appreciated that any suitable myoblast cell line could be used, such as primary ovine, bovine, porcine or human myoblasts.
as §1, with “The” for “Bovine C2C12 myoblasts were grown in Dulbecco's modified eagle medium according to the standard techniques (Thomas et al, 2000). The”

C2C12 myoblasts [2] = assay: Nuclei count per well by DAPI staining of the myoblast proliferation plates; format: cell-based, Bovine
Procedure: as §1
To confirm that the increased proliferation observed in example 1 was not simply false positive results, the plates were used to count nuclei.
Cells in the wells of interest were stained with DAPI (4′-6-diamidino-2-phenylindole) which is a fluorescent dye that stains nuclei blue. DAPI was used at a concentration of […] in PBS and cells stained for 5 mins at room temperature, then washed once with PBS buffer. Images of each well were then captured via a Leica DMI 6000 microscope and an image analysis program (Image-Pro plus) utilised to count the nuclei. For each treatment (recombinant 310 positive control, and synthetic peptides (2-3) and (1-4/2-3) at 10 and 20 µg/ml), 3-6 wells per treatment were analysed.

synthetic peptide having a truncation position at 281: Synthetic mature myostatin peptide C-terminally truncated at position 281 (DFGLDCDEHSTESRC; Growth/differentiation factor 8; UniProt O18836 267-281, looked up, fragment)
biological activity / enhanced myoblast proliferation (in words) (myoblasts): not biologically active

linear 310 synthetic peptide: Synthetic 267-310 myostatin peptide, linear, no forced connectivity (DFGLDCDEHSTESRCCRYPLTVDFEAFGWDWIIAPKRYKANYCS; Growth/differentiation factor 8 linear; UniProt O18836 267-310, looked up, fragment)
biological activity / enhanced myoblast proliferation (in words) (myoblasts): showed enhanced myoblast proliferation

mature recombinant myostatin peptide C-terminally truncated at position 281: Recombinant mature myostatin peptide truncated at 281, two cysteines (1-2 connectivity), from WO 2008/016314 (DFGLDCDEHSTESRC; disulfide 6-15; UniProt O18836 267-281, looked up, fragment)
biological activity (in words) (myostatin): biologically active

2-4: Synthetic 267-310 myostatin peptide with 2-4 cysteine connectivity (DFGLDCDEHSTESRCCRYPLTVDFEAFGWDWIIAPKRYKANYCS; disulfide 15-43; not fully specified (bridges); cysteine pairing not given here; UniProt O18836 267-310, looked up, fragment)
biological activity / enhanced myoblast proliferation (in words) (myoblasts): not biologically active

310 synthetic peptide that was N-terminally truncated at amino acid position 282: Synthetic peptide of amino acids 282-310 of SEQ ID NO:1, only cysteines 3 and 4 (CRYPLTVDFEAFGWDWIIAPKRYKANYCS; only cysteines 3 and 4; listed as Homo sapiens)
biological activity / enhanced myoblast proliferation (in words) (myoblasts): not active

3-4: Synthetic 267-310 myostatin peptide with 3-4 cysteine connectivity (DFGLDCDEHSTESRCCRYPLTVDFEAFGWDWIIAPKRYKANYCS; disulfide 16-43; not fully specified (bridges); cysteine pairing not given here; UniProt O18836 267-310, looked up, fragment)
biological activity / enhanced myoblast proliferation (in words) (myoblasts): not biologically active

1-2: Synthetic 267-310 myostatin peptide with 1-2 cysteine connectivity (DFGLDCDEHSTESRCCRYPLTVDFEAFGWDWIIAPKRYKANYCS; disulfide 6-15; not fully specified (bridges); cysteine pairing not given here; UniProt O18836 267-310, looked up, fragment)
biological activity / enhanced myoblast proliferation (in words) (myoblasts): not biologically active

1-4: Synthetic 267-310 myostatin peptide with 1-4 cysteine connectivity (DFGLDCDEHSTESRCCRYPLTVDFEAFGWDWIIAPKRYKANYCS; disulfide 6-43; not fully specified (bridges); cysteine pairing not given here; UniProt O18836 267-310, looked up, fragment)
biological activity / enhanced myoblast proliferation (in words) (myoblasts): not biologically active

Synthetic 310 (2-3 connectivity): Synthetic peptide of amino acids 267-310 of bovine myostatin with forced disulfide between cysteines 2 and 3 (281, 282) (DFGLDCDEHSTESRCCRYPLTVDFEAFGWDWIIAPKRYKANYCS; disulfide 15-16; not fully specified (bridges); cysteine pairing not given here; UniProt O18836 267-310, looked up, fragment)
% proliferation above control (C2C12 myoblasts [1]; 0.1 μg, 48 h): 101.66% | % proliferation above control (C2C12 myoblasts [1]; 0.1 μg, 72 h): 101.06% | % proliferation above control (C2C12 myoblasts [1]; 1.0 μg, 48 h): 97.70% | % proliferation above control (C2C12 myoblasts [1]; 1.0 μg, 72 h): 102.00% | % proliferation above control (C2C12 myoblasts [1]; 10 μg, 48 h): 104.18% | % proliferation above control (C2C12 myoblasts [1]; 10 μg, 72 h): 103.83% | % proliferation above control (C2C12 myoblasts [1]; 20.0 μg, 48 h): 105.00% | % proliferation above control (C2C12 myoblasts [1]; 20.0 μg, 72 h): 105.07% | myoblast proliferation / biological activity (in words) (C2C12 myoblasts [1]): biologically active | Number of nuclei per well (C2C12 myoblasts [2]; 10 μg, 48 h): 810.5 | Number of nuclei per well (C2C12 myoblasts [2]; 10 μg, 72 h): 1906.1 | Number of nuclei per well (C2C12 myoblasts [2]; 20.0 μg, 48 h): 808.9 | Number of nuclei per well (C2C12 myoblasts [2]; 20.0 μg, 72 h): 1903.6 | increase in cell numbers (in words) (C2C12 myoblasts [2]; 48 h): significant increases in cell numbers | increase in cell numbers (in words) (C2C12 myoblasts [2]; 72 h): significant increases in cell numbers

310 positive control: Recombinant peptide of amino acids 267-310 of bovine myostatin with N terminal and C terminal tags, positive control (DFGLDCDEHSTESRCCRYPLTVDFEAFGWDWIIAPKRYKANYCS; cysteine pairing not given here; also: N- and C-terminal tags; UniProt O18836 267-310, looked up, fragment) [reference compound]
% proliferation above control (C2C12 myoblasts [1]; 10 μg, 48 h): 113.58% and 111.76% | % proliferation above control (C2C12 myoblasts [1]; 10 μg, 72 h): 122.97% and 119.64% | myoblast proliferation / biological activity (in words) (C2C12 myoblasts [1]): significantly enhanced myoblast proliferation | Number of nuclei per well (C2C12 myoblasts [2]; 10 μg, 48 h): 847.1 and 816.7 | Number of nuclei per well (C2C12 myoblasts [2]; 10 μg, 72 h): 2429.3 and 2229.2

1-3: Synthetic 267-310 myostatin peptide with 1-3 cysteine connectivity (DFGLDCDEHSTESRCCRYPLTVDFEAFGWDWIIAPKRYKANYCS; disulfide 6-16; not fully specified (bridges); cysteine pairing not given here; UniProt O18836 267-310, looked up, fragment)
biological activity / enhanced myoblast proliferation (in words) (myoblasts): not biologically active

Synthetic 310 (2-3/1-4 connectivity): Synthetic peptide of amino acids 267-310 of bovine myostatin (SEQ ID NO:4) with forced 2-3/1-4 disulfide connectivity (DFGLDCDEHSTESRCCRYPLTVDFEAFGWDWIIAPKRYKANYCS; disulfide 15-16, 6-43)
% proliferation above control (C2C12 myoblasts [1]; 0.1 μg, 48 h): 100.17% | % proliferation above control (C2C12 myoblasts [1]; 0.1 μg, 72 h): 100.54% | % proliferation above control (C2C12 myoblasts [1]; 1.0 μg, 48 h): 100.07% | % proliferation above control (C2C12 myoblasts [1]; 1.0 μg, 72 h): 102.60% | % proliferation above control (C2C12 myoblasts [1]; 10 μg, 48 h): 108.58% | % proliferation above control (C2C12 myoblasts [1]; 10 μg, 72 h): 107.51% | % proliferation above control (C2C12 myoblasts [1]; 20.0 μg, 48 h): 106.87% | % proliferation above control (C2C12 myoblasts [1]; 20.0 μg, 72 h): 110.47% | myoblast proliferation / biological activity (in words) (C2C12 myoblasts [1]): slightly more biological activity | Number of nuclei per well (C2C12 myoblasts [2]; 10 μg, 48 h): 810.2 | Number of nuclei per well (C2C12 myoblasts [2]; 10 μg, 72 h): 2328.2 | Number of nuclei per well (C2C12 myoblasts [2]; 20.0 μg, 48 h): 739.3 | Number of nuclei per well (C2C12 myoblasts [2]; 20.0 μg, 72 h): 2172.0 | increase in cell numbers (in words) (C2C12 myoblasts [2]; 72 h): significant increases in cell numbers | biological activity / enhanced myoblast proliferation (in words) (myoblasts): biologically active
